According to patent US9717748B2, “Compositions and methods for treating an infection” (CMPD LICENSING, LLC, priority 2015, dated 2017):

Legend:
Aspergillus flavus = test: Expected efficacy of antifungal agents
Aspergillus fumigatus = test: Expected efficacy of antifungal agents
Cryptococcus neoformans = test: Expected efficacy of antifungal agents
[1] = system: Trichophyton mentagrophytes; test: Expected efficacy of antifungal agents
Leishmania infantum = test: Expected efficacy of antifungal agents
Scedosporium apiospermum = test: Expected efficacy of antifungal agents

CCC(C)n1ncn(-c2ccc(N3CCN(c4ccc(OC[C@H]5CO[C@](Cn6cncn6)(c6ccc(Cl)cc6Cl)O5)cc4)CC3)cc2)c1=O (mixture of isomers) [Itraconazole]
yes: Expected efficacy against Aspergillus flavus (Aspergillus flavus) | Expected efficacy against Aspergillus fumigatus (Aspergillus fumigatus) | Expected efficacy against Coccidioides immitis (Coccidioides immitis) | Expected efficacy against Cryptococcus neoformans (Cryptococcus neoformans) | Expected efficacy against Trichophyton mentagrophytes [1]

C[C@@H]1[C@H](O)[C@@H](C)/C=C/C=C/C=C/C=C/C=C/C=C/C=C/[C@H](O[C@@H]2O[C@H](C)[C@@H](O)[C@H](N)[C@@H]2O)C[C@@H]2O[C@](O)(C[C@@H](O)C[C@@H](O)[C@H](O)CC[C@@H](O)C[C@@H](O)CC(=O)O[C@H]1C)C[C@H](O)[C@H]2C(=O)O [Amphotericin]
yes: Expected efficacy against Aspergillus flavus (Aspergillus flavus) | Expected efficacy against Aspergillus fumigatus (Aspergillus fumigatus) | Expected efficacy against Coccidioides immitis (Coccidioides immitis) | Expected efficacy against Cryptococcus neoformans (Cryptococcus neoformans) | Expected efficacy against Leishmania infantum (Leishmania infantum)

C[C@@H](c1ncncc1F)[C@](O)(Cn1cncn1)c1ccc(F)cc1F [Voriconazole]
yes: Expected efficacy against Aspergillus flavus (Aspergillus flavus) | Expected efficacy against Aspergillus fumigatus (Aspergillus fumigatus) | Expected efficacy against Scedosporium apiospermum (Scedosporium apiospermum)
